Source: paper PMC5042751 (Molecular Medicine Reports, 2016)
Read-outs that look alike come from different tables or passages of the source.

Experiments:
Bcrp [1] = experiment: Intestinal and hepatic protein expression by western blotting; assay type: in vivo, rats
Cyp3a1 [2] = tested on: Cyp3a1
OATP1B2 = experiment: Hepatic protein expression by western blotting; assay type: in vivo, rats; conditions: rat liver
Slco1b2 = experiment: Hepatic mRNA expression by RT-qPCR; assay type: in vivo, rats; conditions: rat liver
Mdr1 = conditions: for decrease in mRNA expression level of Mdr1: rat liver
OATP2B1 = experiment: Intestinal protein expression by western blotting; assay type: in vivo, rats; conditions: rat small intestine
Ugt1a1 [3] = experiment: Intestinal and hepatic mRNA expression by RT-qPCR; assay type: in vivo, rats
Cyp3a2 [4] = tested on: Cyp3a2
Mrp2 [5] = experiment: Intestinal and hepatic mRNA expression by RT-qPCR; assay type: in vivo, rats
Mrp2 [6] = experiment: Intestinal and hepatic protein expression by western blotting; assay type: in vivo, rats
Cyp3a1 [7] = tested on: Cyp3a1; remark: listed apart in the source
Ugt1a1 [8] = experiment: Intestinal and hepatic protein expression by western blotting; assay type: in vivo, rats
Slco2b1 = experiment: Intestinal mRNA expression by RT-qPCR; assay type: in vivo, rats; conditions: rat small intestine
P-gp = conditions: for decrease in protein expression level of P-gp: Que 100 mg/kg (high-dose) oral 7 days vs control
Bcrp [9] = experiment: Intestinal and hepatic mRNA expression by RT-qPCR; assay type: in vivo, rats
Cyp3a2 [10] = tested on: Cyp3a2; remark: listed apart in the source
[11] = rat liver, Que 25 mg/kg oral 7 days without CsA (Que-WOC) vs control
[12] = rat liver, Que 25 mg/kg with CsA 10 mg/kg oral 7 days (Que-WC) vs CsA alone
[13] = rat liver, Que 50 mg/kg oral 7 days without CsA (Que-WOC) vs control
[14] = rat liver, Que 50 mg/kg with CsA 10 mg/kg oral 7 days (Que-WC) vs CsA alone
[15] = rat liver, Que 100 mg/kg oral 7 days without CsA (Que-WOC) vs control
[16] = rat liver, Que 100 mg/kg with CsA 10 mg/kg oral 7 days (Que-WC) vs CsA alone
[17] = rat small intestine, Que 25 mg/kg oral 7 days without CsA (Que-WOC) vs control
[18] = rat small intestine, Que 50 mg/kg oral 7 days without CsA (Que-WOC) vs control
[19] = rat small intestine, Que 100 mg/kg oral 7 days without CsA (Que-WOC) vs control
[20] = Que 25 mg/kg oral 7 days without CsA (Que-WOC) vs control
[21] = Que 50 mg/kg oral 7 days without CsA (Que-WOC) vs control
[22] = Que 50 mg/kg with CsA 10 mg/kg oral 7 days (Que-WC) vs CsA treatment
[23] = Que 100 mg/kg oral 7 days without CsA (Que-WOC) vs control
[24] = Que 100 mg/kg with CsA 10 mg/kg oral 7 days (Que-WC) vs CsA treatment
[25] = rat liver, Que 25 mg/kg (low-dose) oral 7 days vs control
[26] = rat liver, Que 50 mg/kg (moderate-dose) oral 7 days vs control
[27] = rat liver, Que 100 mg/kg (high-dose) oral 7 days vs control
[28] = rat liver, Que 100 mg/kg with CsA 10 mg/kg oral 7 days (Que-WC) vs CsA treatment

decrease in mRNA expression level of Cyp3a1 (Cyp3a1 [2]; [11]): 37%
decrease in mRNA expression level of Cyp3a1 (Cyp3a1 [2]; [12]): 31%
decrease in mRNA expression level of Cyp3a1 (Cyp3a1 [2]; [13]): 86%
decrease in mRNA expression level of Cyp3a1 (Cyp3a1 [2]; [14]): 77%
decrease in mRNA expression level of Cyp3a1 (Cyp3a1 [2]; [15]): 98%
decrease in mRNA expression level of Cyp3a1 (Cyp3a1 [2]; [16]): 65%
decrease in mRNA expression level of Cyp3a1 (Cyp3a1 [2]; [17]): 45%
decrease in mRNA expression level of Cyp3a1 (Cyp3a1 [2]; [18]): 83%
decrease in mRNA expression level of Cyp3a1 (Cyp3a1 [2]; [19]): 88%
change in protein expression level of CYP3A2 (Cyp3a2 [4]; [25]): did not produce significant effects
change in protein expression level of CYP3A2 (Cyp3a2 [4]; [26]): did not produce significant effects
decrease in protein expression level of CYP3A2 (Cyp3a2 [4]; [27]): 73%
decrease in protein expression level of CYP3A2 (Cyp3a2 [4]; [16]): 54%
decrease in protein expression level of CYP3A2 (Cyp3a2 [4]; [17]): 14%
decrease in protein expression level of CYP3A2 (Cyp3a2 [4]; [18]): 40%
decrease in protein expression level of CYP3A2 (Cyp3a2 [4]; [19]): 95%
change in protein expression level of CYP3A1 (Cyp3a1 [7]; [25]): did not produce significant effects
change in protein expression level of CYP3A1 (Cyp3a1 [7]; [26]): did not produce significant effects
decrease in protein expression level of CYP3A1 (Cyp3a1 [7]; [27]): 70%
decrease in protein expression level of CYP3A1 (Cyp3a1 [7]; [16]): 56%
decrease in protein expression level of CYP3A1 (Cyp3a1 [7]; [17]): 17%
decrease in protein expression level of CYP3A1 (Cyp3a1 [7]; [18]): 45%
decrease in protein expression level of CYP3A1 (Cyp3a1 [7]; [19]): 91%
decrease in mRNA expression level of Cyp3a2 (Cyp3a2 [10]; [11]): 21%
decrease in mRNA expression level of Cyp3a2 (Cyp3a2 [10]; [12]): 16%
decrease in mRNA expression level of Cyp3a2 (Cyp3a2 [10]; [13]): 37%
decrease in mRNA expression level of Cyp3a2 (Cyp3a2 [10]; [14]): 48%
decrease in mRNA expression level of Cyp3a2 (Cyp3a2 [10]; [15]): 49%
decrease in mRNA expression level of Cyp3a2 (Cyp3a2 [10]; [16]): 57%
decrease in mRNA expression level of Cyp3a2 (Cyp3a2 [10]; [17]): 61%
decrease in mRNA expression level of Cyp3a2 (Cyp3a2 [10]; [18]): 70%
decrease in mRNA expression level of Cyp3a2 (Cyp3a2 [10]; [19]): 90%
Compound: O=c1c(O)c(-c2ccc(O)c(O)c2)oc2cc(O)cc(O)c12 [Que, 3,3′,4′,5,7-pentahydroxyflavone]
decrease in protein expression level of BCRP (Bcrp [1]; [11]): 7%
decrease in protein expression level of BCRP (Bcrp [1]; [12]): 23%
decrease in protein expression level of BCRP (Bcrp [1]; [13]): 27%
decrease in protein expression level of BCRP (Bcrp [1]; [14]): 31%
decrease in protein expression level of BCRP (Bcrp [1]; [15]): 75%
decrease in protein expression level of BCRP (Bcrp [1]; [16]): 67%
decrease in protein expression level of BCRP (Bcrp [1]; [17]): 17%
decrease in protein expression level of BCRP (Bcrp [1]; [18]): 49%
decrease in protein expression level of BCRP (Bcrp [1]; [19]): 90%
change in protein expression level of OATP1B2 (OATP1B2; [20]): did not produce a significant effect
decrease in protein expression level of OATP1B2 (OATP1B2; [21]): 48%
decrease in protein expression level of OATP1B2 (OATP1B2; [22]): 38%
decrease in protein expression level of OATP1B2 (OATP1B2; [23]): 86%
decrease in protein expression level of OATP1B2 (OATP1B2; [24]): 72%
decrease in mRNA expression level of Slco1b2 (Slco1b2; [20]): 79%
decrease in mRNA expression level of Slco1b2 (Slco1b2; Que 25 mg/kg with CsA 10 mg/kg oral 7 days (Que-WC) vs CsA treatment): 72%
decrease in mRNA expression level of Slco1b2 (Slco1b2; [21]): 92%
decrease in mRNA expression level of Slco1b2 (Slco1b2; [22]): 90%
decrease in mRNA expression level of Slco1b2 (Slco1b2; [23]): 95%
decrease in mRNA expression level of Slco1b2 (Slco1b2; [24]): 94%
decrease in mRNA expression level of Mdr1 (Mdr1; [20]): 64%
decrease in mRNA expression level of Mdr1 (Mdr1; Que 25 mg/kg with CsA 10 mg/kg oral 7 days (Que-WC) vs CsA alone): 68%
decrease in mRNA expression level of Mdr1 (Mdr1; [21]): 87%
decrease in mRNA expression level of Mdr1 (Mdr1; Que 50 mg/kg with CsA 10 mg/kg oral 7 days (Que-WC) vs CsA alone): 68%
decrease in mRNA expression level of Mdr1 (Mdr1; [23]): 91%
decrease in mRNA expression level of Mdr1 (Mdr1; Que 100 mg/kg with CsA 10 mg/kg oral 7 days (Que-WC) vs CsA alone): 90%
change in mRNA expression level of Mdr1 (Mdr1; [17]): did not produce a significant effect
increase in mRNA expression level of Mdr1 (Mdr1; [18]): 75%
increase in mRNA expression level of Mdr1 (Mdr1; [19]): 80%
change in protein expression level of OATP2B1 (OATP2B1; [20]): did not produce a significant effect
decrease in protein expression level of OATP2B1 (OATP2B1; [21]): 43%
decrease in protein expression level of OATP2B1 (OATP2B1; [23]): 76%
decrease in mRNA expression of Ugt1a1 (Ugt1a1 [3]; [11]): 41%
decrease in mRNA expression level of Ugt1a1 (Ugt1a1 [3]; [12]): 28%
decrease in mRNA expression of Ugt1a1 (Ugt1a1 [3]; [13]): 81%
decrease in mRNA expression level of Ugt1a1 (Ugt1a1 [3]; [14]): 71%
decrease in mRNA expression of Ugt1a1 (Ugt1a1 [3]; [15]): 92%
decrease in mRNA expression level of Ugt1a1 (Ugt1a1 [3]; [16]): 92%
decrease in mRNA expression of Ugt1a1 (Ugt1a1 [3]; [17]): 20%
decrease in mRNA expression of Ugt1a1 (Ugt1a1 [3]; [18]): 76%
decrease in mRNA expression of Ugt1a1 (Ugt1a1 [3]; [19]): 84%
decrease in mRNA expression level of Mrp2 (Mrp2 [5]; [11]): 45%
decrease in mRNA expression level of Mrp2 (Mrp2 [5]; [12]): 38%
decrease in mRNA expression level of Mrp2 (Mrp2 [5]; [13]): 52%
decrease in mRNA expression level of Mrp2 (Mrp2 [5]; [14]): 36%
decrease in mRNA expression level of Mrp2 (Mrp2 [5]; [15]): 98%
decrease in mRNA expression level of Mrp2 (Mrp2 [5]; [16]): 99%
decrease in mRNA expression level of Mrp2 (Mrp2 [5]; [17]): 45%
decrease in mRNA expression level of Mrp2 (Mrp2 [5]; [18]): 69%
decrease in mRNA expression level of Mrp2 (Mrp2 [5]; [19]): 96%
decrease in protein expression level of MRP2 (Mrp2 [6]; [11]): 14%
decrease in protein expression level of MRP2 (Mrp2 [6]; rat liver, Que 25 mg/kg with CsA 10 mg/kg oral 7 days (Que-WC) vs CsA treatment): 22%
decrease in protein expression level of MRP2 (Mrp2 [6]; [13]): 27%
decrease in protein expression level of MRP2 (Mrp2 [6]; rat liver, Que 50 mg/kg with CsA 10 mg/kg oral 7 days (Que-WC) vs CsA treatment): 23%
decrease in protein expression level of MRP2 (Mrp2 [6]; [15]): 58%
decrease in protein expression level of MRP2 (Mrp2 [6]; [28]): 35%
decrease in protein expression level of MRP2 (Mrp2 [6]; [17]): 13%
decrease in protein expression level of MRP2 (Mrp2 [6]; [18]): 45%
decrease in protein expression level of MRP2 (Mrp2 [6]; [19]): 93%
decrease in protein expression level of UGT1A1 (Ugt1a1 [8]; [11]): 16%
change in protein expression level of UGT1A1 (Ugt1a1 [8]; [12]): did not produce significant effects
decrease in protein expression level of UGT1A1 (Ugt1a1 [8]; [13]): 42%
change in protein expression level of UGT1A1 (Ugt1a1 [8]; [14]): did not produce significant effects
decrease in protein expression level of UGT1A1 (Ugt1a1 [8]; [15]): 87%
decrease in protein expression level of UGT1A1 (Ugt1a1 [8]; [16]): 72%
decrease in protein expression level of UGT1A1 (Ugt1a1 [8]; [17]): 12%
decrease in protein expression level of UGT1A1 (Ugt1a1 [8]; [18]): 41%
decrease in protein expression level of UGT1A1 (Ugt1a1 [8]; [19]): 91%
decrease in mRNA expression level of Slco2b1 (Slco2b1; [20]): 84%
decrease in mRNA expression level of Slco2b1 (Slco2b1; [21]): 92%
decrease in mRNA expression level of Slco2b1 (Slco2b1; [23]): 97%
change in protein expression level of P-gp (P-gp; [25]): did not produce a significant effect
change in protein expression level of P-gp (P-gp; [26]): did not produce a significant effect
decrease in protein expression level of P-gp (P-gp; rat liver): 84%
decline in protein expression level of P-gp (P-gp; [28]): 76%
change in protein expression level of P-gp (P-gp; rat small intestine, Que 25 mg/kg (low-dose) oral 7 days vs control): did not produce a significant effect
change in protein expression level of P-gp (P-gp; rat small intestine, Que 50 mg/kg (moderate-dose) oral 7 days vs control): did not produce a significant effect
decrease in protein expression level of P-gp (P-gp; rat small intestine): 81%
decrease in mRNA expression level of Bcrp (Bcrp [9]; [11]): 55%
decrease in mRNA expression level of Bcrp (Bcrp [9]; [12]): 68%
decrease in mRNA expression level of Bcrp (Bcrp [9]; [13]): 77%
decrease in mRNA expression level of Bcrp (Bcrp [9]; [14]): 77%
decrease in mRNA expression level of Bcrp (Bcrp [9]; [15]): 88%
decrease in mRNA expression level of Bcrp (Bcrp [9]; [16]): 89%
decrease in mRNA expression level of Bcrp (Bcrp [9]; [17]): 46%
decrease in mRNA expression level of Bcrp (Bcrp [9]; [18]): 70%
decrease in mRNA expression level of Bcrp (Bcrp [9]; [19]): 92%
